Earlier results on one sequence are cited in paper PMC11902296, “cAmbly: A non-toxic cell-penetrating peptide derived from Amblyomin-X with targeted delivery to mitochondrial and cytoplasmic proteins” (PLOS One, 2025).

The subject of series [1] is tumor cells. The following applies: isolated domain of Amblyomin-X. The source says: Amblyomin-X is a promising antitumoral protein that requires cellular internalization to exert its activity.
Series [2] deals with tumor cells. The following applies: isolated domain of Amblyomin-X. From the text:
One promising candidate has emerged from Amblyomin-X, a Kunitz-type protease inhibitor derived from the salivary glands of the tick Amblyomma sculptum. […] Structurally, Amblyomin-X consists of two distinct regions: a non-permeant Kunitz-type domain located at the N-terminus, which mediates the protein’s cytotoxic activity, and a disordered C-terminal tail.
The source holds these as a separate data set.

No end group written: not given here.

For “EEQTHFHFESPKLISFKVQDYWILNDIMKKNLTGISLKSEEEDADSGEID [cAmbly]”, the “ability to enter cells” value in the series on tumor cells [1] is “can penetrate cells”. Moreover, the cytotoxic activity result in the series on tumor cells [2] was “lacks cytotoxic activity”.
